Patent US20250326988A1, “SELF-PRESERVED, MILD LIQUID LAUNDRY DETERGENT FORMULAS” (Henkel AG & Co. KGaA, priority 2024, published 2025)

System: Fungi
Experiment: Micro challenge, fungi reduction
Format: cell-based
Details: for Estimated Regression Coefficients for 7 Day: Coefficient / Estimated Regression Coefficients for 14 Day: Coefficient / Estimated Regression Coefficients for 21 Day: Coefficient / Estimated Regression Coefficients for 28 Day: Coefficient: Minitab regression of fungi log reductions; for efficacy of ingredient for log reduction as indicated by estimated regression coefficients: ethanol at day 7, sodium chloride afterwards
Description: Micro challenges were performed on Formulations 61J-L, 62A-M, […] and […] prepared in Example 1 for log reduction rates of bacteria and fungi. Bacteria were double challenged (inoculated about 1E08 to 1E09 CFU/g) and Fungi was single challenged (inoculated about 1E8 to 5E8). A. brasillienis (mold), S. aureus, E. coli, P. gergoviae/[…] mixture, P. aeruginosa, C. albicans (yeast), H. venusta were tested. Pass criteria for bacterium was greater than 3 log reduction on day 7 and 4 logs on day 28. Pass criteria for fungi was greater than 1 log reduction at 14 days with no growth observed afterwards.

CCO [Ethanol]
Estimated Regression Coefficients for 7 Day: Coefficient: 2.24
Estimated Regression Coefficients for 14 Day: Coefficient: 3.08
Estimated Regression Coefficients for 21 Day: Coefficient: 3.22
Estimated Regression Coefficients for 28 Day: Coefficient: 3.09
efficacy of ingredient for log reduction as indicated by estimated regression coefficients: most effective log reduction

CC(C(=O)O)N(CC(=O)O)CC(=O)O (centres unmarked) [MGDA, methylglycinediacetic acid]
Estimated Regression Coefficients for 7 Day: Coefficient: 1.16
Estimated Regression Coefficients for 14 Day: Coefficient: 1.42
Estimated Regression Coefficients for 21 Day: Coefficient: 1.43
Estimated Regression Coefficients for 28 Day: Coefficient: 1.42

[Cl-].[Na+] [NaCl, sodium chloride]
Estimated Regression Coefficients for 7 Day: Coefficient: 1.36
Estimated Regression Coefficients for 14 Day: Coefficient: 2.14
Estimated Regression Coefficients for 21 Day: Coefficient: 3.13
Estimated Regression Coefficients for 28 Day: Coefficient: 3.42
efficacy of ingredient for log reduction as indicated by estimated regression coefficients: comparable to ethanol's efficacy
